The structures appear in SMILES notation. Like-named read-outs stand apart in the source and are kept apart here.

For one series, the system named is white mice. The series is described as follows: Acute toxicity after oral administration of a single dose. It is filed as in vivo. As to conditions: observation time 14 days. The protocol:
(§1) The acute toxicity of the test compounds was determined in white mice (observation time: 14 days) after oral administration of a single dose.

Assay in series [1]: as above
It is filed as in vivo. Conditions: mouse, in vivo, po, white mice, observation time 14 days. The protocol:
as §1

The next series concerns non-anesthetized mice. The series is described as follows: Prolonging effect upon the bleeding time (method of Duke). It is filed as in vivo. Conditions: Mus musculus, po, 10 mgm/kg per os, vs untreated animals. From the text:
2. The prolonging effect upon the bleeding time was ascertained by the method of Duke, J. Amer. Med. Assoc. 15, 1185 (1910). 10 mgm/kg of the test compound were given per os to non-anesthetized mice. One or three hours after administration of the test compound, about 0.5 mm was cut off from the tail of each animal, and the exuded blood was carefully soaked up with filter paper at intervals of 30 seconds. The number of drops of blood so obtained was used as a measure for the bleeding time compared to untreated animals (5 animals/test).

The subject of series [2] is thrombocyte aggregation in the platelet-rich plasma of healthy human test subjects. The series can be described thus: Inhibition of collagen-induced thrombocyte aggregation (method of Born and Cross). It is filed as cell-based. As to conditions: Homo sapiens, 10 min, 10^-4 mol/liter test compound, 10 minutes incubation at 37° C, vs untreated controls. From the text: 1. The inhibiting action upon thrombocyte aggregation was ascertained by the method of Born and Cross, J. Physiol. 170, 397 (1964), in the platelet-rich plasma of healthy human test subjects, by photometrically ascertaning and registering the rate of decrease of the optical density after addition of commercial collagen containing 1 mgm of collagen fibrils per ml. The angle of inclination of the density curve is a measure of the rate of aggregaton (V max.). The point on the curve which corresponded to the greatest lightpermeability was used for calculation of the optical density (o.D.).
The collagen doses were held to a minimum, but still sufficiently large to result in an irreversible aggregation. Prior to addition of collagen, each plasma sale was incubated for 10 minutes at 37° C with various amounts of the test compound. To provoke maximum aggregation, about 0.01 ml of the collagen solution was added to 1 ml of platelet-rich plasma.
The values in Table I below represent the inhibition of the aggregation rate in % (V max) and the alteration of the optical density (O.D.) in %, compared with the untreated controls, i.e. without addition of the test compound.

[3] abbreviates: 1 h, 1 hour after administration, read-out: Prolongation of bleeding time in % after 1 hour.
Setting [4] is: read-out: Inhibition in % of the aggregation rate (V max).
Setting [5] is: read-out: Inhibition in %: alteration of the optical density (O.D.).

As usually defined, the LD50 is the dose expected to kill half of the subjects tested. A low value points to a more toxic substance. With `COC(=O)CS(=O)(=O)C(C)c1ccc(-c2ccccc2F)cc1` (stereo not drawn) [S], the “animals died (at the stated dose)” value in the series with white mice is reported as 0 out of 5. Moreover, the LD50 at 336 h in series [1] was greater than 250 mg/kg. The change in vivo at 10 mg/kg was 83% with non-anesthetized mice (setting [3]) and 27% in the series with non-anesthetized mice (3 h, 3 hours after administration, read-out: Prolongation of bleeding time in % after 3 hours). Further, the inhibition at 100 µM in series [2] (setting [4]) amounted to 45%; in series [2] (setting [5]) it was 66%.

As to `CC(C)CCOC(=O)CS(=O)(=O)C(C)c1ccc(-c2ccccc2F)cc1` (stereo not drawn) [T, [1-(2'-fluoro-4-biphenylyl)-ethylsulfonyl]-acetic acid isoamyl ester], the “animals died (at the stated dose)” value in the series with white mice was 0 out of 5. For the same compound, the LD50 at 336 h in series [1] is greater than 250 mg/kg. Also, in the series on non-anesthetized mice (setting [3]), the change in vivo at 10 mg/kg amounted to 51%. The inhibition at 100 µM is 76% in series [2] (setting [4]) and 83% in series [2] (setting [5]).

In the case of `CC(c1ccc(-c2ccccc2F)cc1)S(C)(=O)=O` (stereo not drawn) [U, [1-(2'-fluoro-4-biphenylyl)-ethyl]-methylsulfone], the “animals died (at the stated dose)” value with white mice was 0 out of 5. The LD50 at 336 h in series [1] was greater than 250 mg/kg. Further, the change in vivo at 10 mg/kg in the series with non-anesthetized mice (setting [3]) stood at 56%. The values for the inhibition at 100 µM in series [2] (setting [4]) and in series [2] (setting [5]) were 87% and 90%, respectively.

Consider `O=C(O)CS(=O)(=O)Cc1ccc(-c2ccc(Cl)cc2)cc1` [V, [(4'-chloro-4-biphenylyl)-methylsulfonyl]-acetic acid, reference compound], for which the “animals died (at the stated dose)” value with white mice is given as 3 out of 10. Also, the LD50 at 336 h in series [1] is greater than 250 mg/kg. For the same compound, in the series on non-anesthetized mice (setting [3]), the change in vivo at 10 mg/kg was determined as 3%. Further, the figures for the inhibition at 100 µM in series [2] (setting [4]) and in series [2] (setting [5]) were 6% and 11%, respectively.

Values taken from patent US3993683A, “Biphenylyl derivatives” (Boehringer Ingelheim GmbH, priority 1974, dated 1976).
